Legend:
Goat anti-mouse IgG = experiment: High-throughput protein formulation optimization: effect of excipients on IgG aggregation at 50° C., S-25/Tol3 readout; format: biochemical; settings: 50° C. for 6 hours
Method: (A). Goat anti-mouse IgG was diluted in sodium acetate, pH 4.5, then mixed with the excipients shown in FIG. 10 A giving a final concentration of 400 mM sodium acetate, 18 μM IgG and the excipient concentration shown in the Table 2. This mixture was heated to 50° C. for 6 hours. At this time the protein solution was diluted two-fold to give a final concentration of 50 mM Histidine buffer, originally pH 7, 2.5 μM S-25, 2.5 μM Tol3 and 9 μM IgG. After 30 minutes of incubation on the shaker, the fluorescence intensity was recorded on the plate reader (FLUOstar Optima). The fluorescence intensity from each individual excipient was then compared with that without any excipient (Value set as 1.0) as shown on the top of the corresponding excipient bar in FIG. 12 A.
(B). In the control plate, the IgG was added to the plate, at the same volume and concentration given above (Example 17A) in 400 mM Sodium Acetate. This mixture was heated to 50° C. for 6 hours, as described above. After 6 hours, the excipient was added followed by S-25 and Tol3 to give all the final concentrations as shown in Example 17A. Similar to the sample plate, the fluorescence intensity from individual excipients was also compared with that from water without any excipient (Values set as 1.0) to obtain the relative fluorescent intensity as shown on the top of the corresponding excipient bar in FIG. 12B.
(C). […]

[1] = biological target: T1, recombinant human alpha-synuclein (ASN) aggregate (Homo sapiens, UniProt P37840); experiment: Fluorescence excitation and emission spectra of dye in the presence of aggregated alpha-synuclein; format: binding; settings: for In the presence of aggregate: Emission wavelength / In the presence of aggregate: Excitation wavelength: 1 μM aggregated ASN, 50 mM Tris-HCl, pH 7.8, 10 μM dye
T1 construct: purchased Sigma-Aldrich
Method: (§1) Fluorescent readings were carried out in 50 mM Tris-HCl, pH 7.8 using 10 μM dye. […] Fluorescence excitation and emission spectra were collected on a Cary Eclipse fluorescence spectrophotometer (Varian, Australia). Fluorescence spectra were measured with excitation and emission slit widths set to 5 nm, and at a constant PMT voltage. Spectroscopic measurements were performed in standard quartz cells. All measurements were made at the respective excitation maxima of each dye. All measurements were carried out at room temperature.

[2] = Fluorescence excitation and emission spectra of dye freely dissolved in buffer; format: physicochemical; settings: 50 mM Tris-HCl, pH 7.8, 10 μM dye, room temperature
Method: as §1

[3] = test system: goat-anti-mouse IgG aggregate; experiment: Fluorescence enhancement (aggregate/native IgG) in the presence of excipients; format: binding; settings: for Fluorescence enhancement (aggregate/native IgG): 2.8 μM IgG, 0.625 μM dye; for Fluorescence enhancement (aggregate/native IgG), Average: Average over all excipient conditions
Method: IgG aggregate was prepared by adjusting 5.83 mg/ml of purified goat-anti-mouse IgG (H&L, Pel Freez, Rogers, Ark.) to pH 2.7 using HCl and incubating at 22° C. for 24 hours. The assay was performed using 2.8 μM IgG, either native or aggregated, and a dye concentration of 0.625 μM. The protein and dye were mixed together for 15 minutes at 22° C., then this was further incubated in the presence of the excipients shown in the table. The fluorescence intensity of S-25, Tol3 and Y2150 were determined with a FLUOstar OPTIMA plate reader (BMG LABTECH) at excitation wavelength of 550 nm and emission wavelength of 610 nm; while the fluorescence intensity for Thioflavin-T was determined using a SpectraMAX GeminiXS (Molecular device, with Softmax Pro 7.0) using an excitation wavelength of 435 nm and emission wavelength of 495 nm. The fluorescence enhancement (aggregate/native IgG) is shown.

## Triton X-100
Goat anti-mouse IgG; 0.2% Triton X-100
  Effect on aggregation of IgG (fluorescence ratio sample plate / control plate): induce aggregation of IgG

## CN(C)c1ccc(/C=C/c2cc[n+](Cc3ccccc3C[n+]3ccc(/C=C/c4ccc(N(C)C)cc4)cc3)cc2)cc1.[Br-].[Br-] [Dye S43]
[1]
  In the presence of aggregate: Emission wavelength: 623 nm
  In the presence of aggregate: Excitation wavelength: 550 nm

## CCN(CC)c1ccc(/C=C/c2cc[n+](Cc3ccccc3C[n+]3ccc(/C=C/c4ccc(N(CC)CC)cc4)cc3)cc2)cc1.[Br-].[Br-] [Yat 2148]
[1]
  In the presence of aggregate: Emission wavelength: 625 nm
  In the presence of aggregate: Excitation wavelength: 553 nm

## Cc1ccc2c(c1)sc(-c1ccc(N(C)C)cc1)[n+]2C.[Cl-] [Thioflavin-T, Thioflavin T, reference compound]
[2]
  Dye freely dissolved in buffer: Emission wavelength: 472 nm
  Dye freely dissolved in buffer: Excitation wavelength: 400 nm
[3]; Ammonium Sulfate, 10 mM
  Fluorescence enhancement (aggregate/native IgG): 2.8 fold
[3]; Ammonium Sulfate, 100 mM
  Fluorescence enhancement (aggregate/native IgG): 2.6 fold
[3]; Ammonium Sulfate, 300 mM
  Fluorescence enhancement (aggregate/native IgG): 1.4 fold
[3]; Arginine, 200 mM
  Fluorescence enhancement (aggregate/native IgG): 1.4 fold
[3]; Arginine, 500 mM
  Fluorescence enhancement (aggregate/native IgG): 2.0 fold
[3]; Ascoric Acid, 1 mM
  Fluorescence enhancement (aggregate/native IgG): 1.5 fold
[3]
  Fluorescence enhancement (aggregate/native IgG), Average: 2.9 fold
[3]; Calcium Chloride, 10 mM
  Fluorescence enhancement (aggregate/native IgG): 3.1 fold
[3]; Calcium Chloride, 50 mM
  Fluorescence enhancement (aggregate/native IgG): 1.5 fold
[3]; Calcium Chloride, 200 mM
  Fluorescence enhancement (aggregate/native IgG): 1.7 fold
[3]; DTT, 1 mM
  Fluorescence enhancement (aggregate/native IgG): 1.6 fold
[3]; Glycine, 0.5%
  Fluorescence enhancement (aggregate/native IgG): 3.1 fold
[3]; Glycine, 2%
  Fluorescence enhancement (aggregate/native IgG): 3.2 fold
[3]; Lactose, 100 mM
  Fluorescence enhancement (aggregate/native IgG): 1.2 fold
[3]; Lactose, 300 mM
  Fluorescence enhancement (aggregate/native IgG): 1.4 fold
[3]; Mannitol, 100 mM
  Fluorescence enhancement (aggregate/native IgG): 3.1 fold
[3]; Mannitol, 300 mM
  Fluorescence enhancement (aggregate/native IgG): 3.7 fold
[3]; Mannitol, 600 mM
  Fluorescence enhancement (aggregate/native IgG): 1.8 fold
[3]; Sodium Chloride, 10 mM
  Fluorescence enhancement (aggregate/native IgG): 1.6 fold
[3]; Sodium Chloride, 100 mM
  Fluorescence enhancement (aggregate/native IgG): 1.3 fold
[3]; Sodium Chloride, 1000 mM
  Fluorescence enhancement (aggregate/native IgG): 2.7 fold
[3]; Sorbitol, 100 mM
  Fluorescence enhancement (aggregate/native IgG): 3.0 fold
[3]; Sorbitol, 300 mM
  Fluorescence enhancement (aggregate/native IgG): 1.9 fold
[3]; Sorbitol, 600 mM
  Fluorescence enhancement (aggregate/native IgG): 3.6 fold
[3]; Trehalose, 100 mM
  Fluorescence enhancement (aggregate/native IgG): 2.2 fold
[3]; Trehalose, 300 mM
  Fluorescence enhancement (aggregate/native IgG): 0.2 fold
[3]; Trehalose, 600 mM
  Fluorescence enhancement (aggregate/native IgG): 4.8 fold
[3]; Tween 20, 0.01%
  Fluorescence enhancement (aggregate/native IgG): 4.6 fold
[3]; Tween 20, 0.2%
  Fluorescence enhancement (aggregate/native IgG): 2.6 fold
[3]; X100, 0.01%
  Fluorescence enhancement (aggregate/native IgG): 5.3 fold
[3]; X100, 0.2%
  Fluorescence enhancement (aggregate/native IgG): 6.6 fold
[3]; X100, 1%
  Fluorescence enhancement (aggregate/native IgG): 3.4 fold
[1]
  In the presence of aggregate: Emission wavelength: 480 nm
  In the presence of aggregate: Excitation wavelength: 447 nm
[1]; as seen in Table 1
  Stokes shift: 23 nm

## CCN(CC)c1ccc(/C=C/c2cc[n+](CCCCCCCCCC[n+]3ccc(/C=C/c4ccc(N(CC)CC)cc4)c(C)c3)cc2C)cc1 [Yat 2150]
[2]
  Dye freely dissolved in buffer: Emission wavelength: 612 nm
  Dye freely dissolved in buffer: Excitation wavelength: 485 nm
[3]; Ammonium Sulfate, 10 mM
  Fluorescence enhancement (aggregate/native IgG): 12.4 fold
[3]; Ammonium Sulfate, 100 mM
  Fluorescence enhancement (aggregate/native IgG): 12.5 fold
[3]; Ammonium Sulfate, 300 mM
  Fluorescence enhancement (aggregate/native IgG): 14.6 fold
[3]; Arginine, 200 mM
  Fluorescence enhancement (aggregate/native IgG): 14.4 fold
[3]; Arginine, 500 mM
  Fluorescence enhancement (aggregate/native IgG): 14.3 fold
[3]; Ascoric Acid, 1 mM
  Fluorescence enhancement (aggregate/native IgG): 14.5 fold
[3]
  Fluorescence enhancement (aggregate/native IgG), Average: 14.8 fold
[3]; Calcium Chloride, 10 mM
  Fluorescence enhancement (aggregate/native IgG): 12.4 fold
[3]; Calcium Chloride, 50 mM
  Fluorescence enhancement (aggregate/native IgG): 14.7 fold
[3]; Calcium Chloride, 200 mM
  Fluorescence enhancement (aggregate/native IgG): 13.9 fold
[3]; DTT, 1 mM
  Fluorescence enhancement (aggregate/native IgG): 11.3 fold
[3]; Glycine, 0.5%
  Fluorescence enhancement (aggregate/native IgG): 12.5 fold
[3]; Glycine, 2%
  Fluorescence enhancement (aggregate/native IgG): 19.0 fold
[3]; Lactose, 100 mM
  Fluorescence enhancement (aggregate/native IgG): 17.5 fold
[3]; Lactose, 300 mM
  Fluorescence enhancement (aggregate/native IgG): 31.0 fold
[3]; Mannitol, 100 mM
  Fluorescence enhancement (aggregate/native IgG): 11.2 fold
[3]; Mannitol, 300 mM
  Fluorescence enhancement (aggregate/native IgG): 13.8 fold
[3]; Mannitol, 600 mM
  Fluorescence enhancement (aggregate/native IgG): 17.7 fold
[3]; Sodium Chloride, 10 mM
  Fluorescence enhancement (aggregate/native IgG): 14.4 fold
[3]; Sodium Chloride, 100 mM
  Fluorescence enhancement (aggregate/native IgG): 11.3 fold
[3]; Sodium Chloride, 1000 mM
  Fluorescence enhancement (aggregate/native IgG): 15.0 fold
[3]; Sorbitol, 100 mM
  Fluorescence enhancement (aggregate/native IgG): 17.3 fold
[3]; Sorbitol, 300 mM
  Fluorescence enhancement (aggregate/native IgG): 15.6 fold
[3]; Sorbitol, 600 mM
  Fluorescence enhancement (aggregate/native IgG): 18.7 fold
[3]; Trehalose, 100 mM
  Fluorescence enhancement (aggregate/native IgG): 14.0 fold
[3]; Trehalose, 300 mM
  Fluorescence enhancement (aggregate/native IgG): 19.4 fold
[3]; Trehalose, 600 mM
  Fluorescence enhancement (aggregate/native IgG): 18.9 fold
[3]; Tween 20, 0.01%
  Fluorescence enhancement (aggregate/native IgG): 5.5 fold
[3]; Tween 20, 0.2%
  Fluorescence enhancement (aggregate/native IgG): 2.6 fold
[3]; X100, 0.01%
  Fluorescence enhancement (aggregate/native IgG): 4.1 fold
[3]; X100, 0.2%
  Fluorescence enhancement (aggregate/native IgG): 2.6 fold
[3]; X100, 1%
  Fluorescence enhancement (aggregate/native IgG): 1.7 fold
[1]
  In the presence of aggregate: Emission wavelength: 610 nm
  In the presence of aggregate: Excitation wavelength: 515 nm

## CCN(CC)c1ccc(/C=C/c2cc[n+](CCOCC[n+]3ccc(/C=C/c4ccc(N(CC)CC)cc4)cc3)cc2)cc1.[I-].[I-] [Yat 2149]
[2]
  Dye freely dissolved in buffer: Emission wavelength: 614 nm
  Dye freely dissolved in buffer: Excitation wavelength: 502 nm
[1]
  In the presence of aggregate: Emission wavelength: 617 nm
  In the presence of aggregate: Excitation wavelength: 534 nm

## OC[C@H]1O[C@H](O[C@H]2O[C@H](CO)[C@@H](O)[C@H](O)[C@H]2O)[C@H](O)[C@@H](O)[C@@H]1O [Trehalose]
Goat anti-mouse IgG; 100 mM Trehalose
  Effect on aggregation of IgG (fluorescence ratio sample plate / control plate): inhibit or slow down aggregation of IgG

## CCN(CC)c1ccc(/C=C/c2cc[n+](CCCC[n+]3ccc(/C=C/c4ccc(N(CC)CC)cc4)cc3)cc2)cc1.[I-].[I-] [Yat 2134]
[2]
  Dye freely dissolved in buffer: Emission wavelength: 620 nm
  Dye freely dissolved in buffer: Excitation wavelength: 500 nm
[1]
  In the presence of aggregate: Emission wavelength: 613 nm
  In the presence of aggregate: Excitation wavelength: 535 nm

— US9932479B2, “Dyes and compositions, and processes for using same in analysis of protein aggregation and other applications” (Enzo Biochem, Inc., priority 2009, dated 2018)
